This data set is described as follows: passive permeability, PAMPA, ADME assay (AID 1508612). The following applies: pH 7.4, 30.0 min, 50.0 µM.

Usually Papp stands for a coefficient for how fast a substance crosses the barrier. A lower Papp goes with slow passage. For `CS(=O)(=O)CCNCc1ccc(-c2ccc3ncnc(Nc4ccc(OCc5cccc(F)c5)c(Cl)c4)c3c2)o1`, the Papp was less than 1 ×10⁻⁶ cm/s.

Compound `Cc1cn(-c2cc(NC(=O)c3ccc(C)c(Nc4nccc(-c5cccnc5)n4)c3)cc(C(F)(F)F)c2)cn1` showed a Papp of 676 ×10⁻⁶ cm/s.

As for `COCCNC(=O)c1ccc(-c2ncc3cnc(-c4cccc(F)c4)cn23)cc1`, the apparent permeability coefficient (Papp) was found to be 405 ×10⁻⁶ cm/s.

Compound `CC1=C(C(=O)Nc2ccc(Cl)cc2)C(c2ccccc2C)n2ncc(C(=O)Nc3ccc(C)cc3)c2N1` (stereo not given) had a Papp of 10.1 ×10⁻⁶ cm/s.

`NC(=O)COc1ccc(C2CC(=O)Nc3n[nH]c(Nc4ccccc4)c32)cc1` (stereo not given) registered a Papp of 2.8 ×10⁻⁶ cm/s.

Take `Cc1cc2c(-c3cccc(O)c3)nc(-c3c(C)noc3C)cc2[nH]1`: the Papp was more than 1000 ×10⁻⁶ cm/s.

As for `O=[N+]([O-])c1cccc(CNc2ccc(S(=O)(=O)Nc3nccs3)cc2)c1O`, the Papp turned out to be 28.6 ×10⁻⁶ cm/s.

`COC(=O)c1ccnc(-c2cc(C(=O)NCCc3ccccc3)ccn2)c1` came in with a Papp of 398 ×10⁻⁶ cm/s.

In turn, `Clc1ccccc1Nc1nc(-c2ccncc2)nc2ccccc12` returned a Papp of more than 1000 ×10⁻⁶ cm/s.

Compound `COc1ccc(C2c3c(oc4ccc(C)cc4c3=O)C(=O)N2CCCN2CCOCC2)cc1OC` (stereo not given) had a Papp of 403 ×10⁻⁶ cm/s.

With `O=C(O)c1ccc(-c2c[nH]c3ncc(-c4ccccc4)cc23)cc1C1CCCC1`, the Papp is 400 ×10⁻⁶ cm/s.

In turn, `CC(C)NC(=O)c1nc(-c2ccc(Cl)nc2)c2ccccn12` registered a Papp of more than 1000 ×10⁻⁶ cm/s.

As to `Cc1ccc(NC(=O)Nc2cc3c(cc2N2CCCCC2)n(C)c(=O)n3C)cc1Cl`, the Papp came out at 8 ×10⁻⁶ cm/s.

`Fc1ccc(Nc2nc(C3=CCNCC3)nc3ccccc23)cc1F` had a Papp of more than 1000 ×10⁻⁶ cm/s.

`Cc1cc(NS(=O)(=O)c2ccc3c(c2)CCC(=O)N3)ccc1F` displayed a Papp of 412 ×10⁻⁶ cm/s.

In turn, `COc1ccc(NC2=C(c3ccc(C(F)(F)F)cc3)C(=O)c3ccccc32)cc1` yielded a Papp of 82 ×10⁻⁶ cm/s.

The compound `Cc1cc(N2CCN(c3ccccc3)CC2)nc(-n2nc(C)cc2C)n1` showed a Papp of more than 1000 ×10⁻⁶ cm/s.

For the compound `Cc1ccc(C)c(CN2C(=O)c3ccccc3S(=O)c3ccc(C(=O)N4CCN(c5ccccc5F)CC4)cc32)c1` (stereo not given), the Papp is more than 1000 ×10⁻⁶ cm/s.

As for `Cc1ccc(C(=O)Nc2nc(-c3ccccn3)cs2)cc1S(=O)(=O)N1CCOCC1`, the Papp was 540 ×10⁻⁶ cm/s.

Compound `Cc1cc(C)cc(NS(=O)(=O)c2ccc3[nH]cc(C(=O)NCc4ccco4)c(=O)c3c2)c1` gave a Papp of 9.3 ×10⁻⁶ cm/s.

Turning to `COC(=O)c1cc2occc2n1Cc1nc(-c2ccc(C)cc2)oc1C`, the Papp came to 40.3 ×10⁻⁶ cm/s.

On to `CCCCN(C)C(=O)c1c(C)sc2ccn(CCC)c(=O)c12`, for which the Papp came out at 124 ×10⁻⁶ cm/s.

`Cc1nn2c(c1-c1ccccc1Oc1ccccc1)N(Cc1ccccc1O)CCC2` had a Papp of more than 1000 ×10⁻⁶ cm/s.

Turning to `COc1ccc(-c2nc(-c3c(C)noc3C)cc3c2cc(C)n3CCN(C)C)cc1OC`, the Papp was more than 1000 ×10⁻⁶ cm/s.

Compound `COc1ccc(NC(=O)CCCc2nnc3n(CCC(C)C)c(=O)c4sccc4n23)cc1Cl` showed a Papp of more than 1000 ×10⁻⁶ cm/s.

With `CC(=O)N1CCc2c(sc3c2c(=O)n(-c2ccccc2)c(=O)n3Cc2cccc(C(F)(F)F)c2)C1`, the apparent permeability (Papp) is more than 1000 ×10⁻⁶ cm/s.

The compound `CC(C)c1cc(C(=O)N2CC[C@@H](NC(=O)C3CC3)C2)n[nH]1` returned an apparent permeability coefficient (Papp) of 1.3 ×10⁻⁶ cm/s.

As to `Cc1ccc(S(=O)(=O)Nc2ccccc2C(=O)Nc2nc(-c3ccc(Cl)cc3)cs2)cc1`, the apparent permeability (Papp) was 16.6 ×10⁻⁶ cm/s.

On to `NC(=O)C1CCN(c2nc(-c3cccc(F)c3)cs2)CC1`, for which the Papp amounted to 685 ×10⁻⁶ cm/s.

`CCc1cccc(C)c1Nc1c(-c2ccc(N(C)C)cc2)nc2ncccn12`: the Papp is more than 1000 ×10⁻⁶ cm/s.

On to `Cn1cc(Br)c(C2N=C(Nc3nc4ccccc4o3)NC3=C2C(=O)CCC3)n1` (stereo not given), for which the Papp was more than 1000 ×10⁻⁶ cm/s.

`O=[S+]([O-])(Nc1ccccc1)c1ccc(NCc2cccc(C(F)(F)F)c2F)cc1` came in with a Papp of 306 ×10⁻⁶ cm/s.

Turning to `Cc1noc(C)c1-c1cc2c(cc(C)n2C)c(-c2cnn(C)c2)n1`, the apparent permeability coefficient (Papp) is 549 ×10⁻⁶ cm/s.

In turn, `CCC(CC)(NC(=O)C(C)C)C(=O)N[C@@H](CCCN=C(N)N)C(=O)NC1(C(=O)NC(c2ccc(F)cc2)c2ccc(F)cc2)CCCC1` yielded a Papp of 8 ×10⁻⁶ cm/s.

`CCc1c(C)nc2c(-c3cnn(-c4cc(CO)ccn4)c3)c[nH]n2c1=O` showed a Papp of 1.62 ×10⁻⁶ cm/s.

The record behind these values is PubChem BioAssay AID1508612.
